Reference: patent US20260083701A1, “COMPOSITIONS, FORMULATIONS, AND METHODS FOR TREATMENT OF INFLAMMATORY CONDITIONS” (Oddity Labs, LLC, priority 2023, published 2026)

Key:
IL-4 = assay: Functional Th2-blocking activity: IL-4 expression in primary human Th2 cells (intracellular flow cytometry); format: cell-based; settings: for % Normalized Reduction of Cytokine Expression From Baseline in CD4+ T Cells IL-4: normalized against vehicle control (water), 3 days co-culture, PMA/ionomycin 6 hours; for % Normalized Reduction of Cytokine Expression From Baseline in CD4+ T Cells IL-4 / Expression of Cytokine following Stimulation (% X Positive among CD4+ T cells) IL-4: primary human CD4+ Th2 cells; for Expression of Cytokine following Stimulation (% X Positive among CD4+ T cells) IL-4: 3 days co-culture with compound, PMA/ionomycin stimulation 6 hours
Text: (§1) To produce T helper 2 (Th2) cells, peripheral blood mononuclear cells (PBMCs) were harvested from healthy donor leukopaks using Ficoll gradients. Naive CD4+ T cells were further isolated, then activated using TransAct or Dynabeads (depending on the donor). CD4+ T cells were activated for two days in the presence of low dose IL-2 (30 IU/mL) in X-VIVO-15 media containing 5% human AB serum (activation cycle). On the second day, the media was exchanged and supplemented with interleukin 4 (IL-4) (20 ng/mL), anti-IFN-gamma antibody (1 μg/mL), and interleukin 2 (IL-2) (rest cycle). The cells were cultured for an additional five days then evaluated for Prostaglandin D2 receptor 2 (DP2 or CRTH2) expression and IL-4 and interleukin 13 (IL-13) expression following phorbol myristate acetate (PMA)/ionomycin stimulation. If the expression of CRTH2 was >50%, the cells were frozen and used in Th2 IL-4/IL-13 bioactivity assays. If the expression of CRTH2 <50%, then the cells were restimulated using TransAct (or Dynabeads) and maintained on similar cycles of activation (2 days) and rest (5 days), until the expression of CRTH2 exceeded 50%. Typically, no more than 4 cycles are needed before the Th2 cells may be harvested and frozen.
(§2) For testing the ability of a compound or salt of the present disclosure to reduce the expression of IL-4 and IL-13 was tested in primary human Th2 cells, the abovementioned cells were thawed, then cultured for one day in IL-2 containing media. The Th2 cells were treated with compounds added at varying concentrations for three days, after which, the cells were washed, and stimulated with PMA/ionomycin for 6 hrs prior to readabout via intracellular flow cytometry.
(§3) The ability of a compound or salt of the present disclosure to reduce the expression of IL-4 and IL-13 was tested in primary human Th2 cells. Naive, primary human CD4+ T cells were isolated from healthy donors and differentiated into Th2 cells using a combination of IL-4 cytokine and anti-IFN-gamma antibody, based on a modified protocol from Scott et al (Activation of Th2 cells downregulates CRTh2 through an NFAT1 mediated mechanism. PLoS One. 2018 Jul. 3; 13(7):e0199156). Th2 cells were CRTH2+ and expressed IL-4 and IL-13 following PMA/ionomycin stimulation. Prior to PMA/ionomycin stimulation, Th2 cells were co-cultured with a compound or salt of the present disclosure for 3 days and then stimulated for 6 hours. Intracellular flow cytometry was performed to investigate the expression of IL-4 and IL-13 among stimulated CD4+ Th2 cells. The compound or salt was evaluated across a 2-log concentration range. Th2 cells were cultured in X-VIVO-15 media with human AB serum and supplemented with low dose IL-2 (30 IU/mL). The antibody panel that was used is listed below. All antibodies were obtained from Biolegend.
(§4) Description of Calculation for: (1) Expression of Cytokine following Stimulation (% X Positive among CD4+ T cells), and (2) % Normalized Reduction of Cytokine Expression From Baseline in CD4+ T Cells
(§5) The expression of IL-4 and IL-13 was measured based on positive gated fractions among CD4+ Th2 cells. The number is expressed as a positive percentage, determined based on the fluorescence-minus-one (FMO) control. The max percent is 100%. The normalized reduction value uses the vehicle control (water) to normalize against using the following percent change formula. (Cmpd: compound)

IL-13 = assay: Functional Th2-blocking activity: IL-13 expression in primary human Th2 cells (intracellular flow cytometry); format: cell-based; settings: for Expression of Cytokine following Stimulation (% X Positive among CD4+ T cells) IL-13: 3 days co-culture with compound, PMA/ionomycin stimulation 6 hours; for % Normalized Reduction of Cytokine Expression From Baseline in CD4+ T Cells IL-13: normalized against vehicle control (water), 3 days co-culture, PMA/ionomycin 6 hours
Text: as §1, §2, §3, §4, §5

IL-4 receptor signaling = assay: IL-4 signaling inhibition in HEK-Blue IL-4/IL-13 cells; format: cell-based, human; settings: HEK-Blue IL-4/IL-13 cells stimulated with 1.25 ng/mL IL-4, co-culture with varying concentrations for 24 hours
Experimental: HEK-Blue IL-4/IL-13 cells are used to evaluate IL-4/IL-4R-alpha binding. HEK-Blue IL-4/IL-13 have been engineered to produce secreted alkaline phosphatase (SEAP) when exposed to IL-4 or IL-13 and have been previously used to identify IL-4 and IL-4R inhibitors. Compounds are tested with these cells at various dosages to evaluate dose dependent changes in IL-4/IL-4R-alpha binding inhibition. Full EC50 curves are generated for Tier1 compounds.
In the experiment, engineered HEK-Blue™ IL-4/IL-13 cells were stimulated with a dose of 1.25 ng/mL of IL-4 and then subjected to co-culture with varying concentrations of the compounds for a period of 24 hours. […] The provided data represent the mean±standard deviation of six technical replicates carried out across two experimental replicates.

Row | SMILES | Th2 activity (IL-4) | % Normalized Reduction of Cytokine Expression From Baseline in CD4+ T Cells IL-4 (IL-4) | Expression of Cytokine following Stimulation (% X Positive among CD4+ T cells) IL-4 (IL-4) | Expression of Cytokine following Stimulation (% X Positive among CD4+ T cells) IL-13 (IL-13) | % Normalized Reduction of Cytokine Expression From Baseline in CD4+ T Cells IL-13 (IL-13) | IL-4 signaling inhibition (IL-4 receptor signaling)
1 | O=C(Nc1cccc(Cn2nc3ccccn3c2=O)c1)c1c[nH]n2c1nc(=O)c1ccccc12 [II-2, 5-oxo-N-(3-((3-oxo-[1,2,4]triazolo[4,3-a]pyridin-2(3H)-yl)methyl)phenyl)-1,5-dihydropyrazolo[1,5-a]quinazoline-3-carboxamide] | suppressed Th2 activity | B (B represents 15% to less than 20%) | B (B represents 30% to less than 35%) | B (B represents 10% to less than 14%) | D (D represents 50% or greater) | exception
2 | O=C(Nc1cccc(S(=O)(=O)NC2=NCCC2)c1)c1ccc(OCc2ccccc2)cc1 [III-1, 4-(benzyloxy)-N-{3-[(3,4-dihydro-2H-pyrrol-5-yl)sulfamoyl]phenyl}benzamide] | – | D (D represents 25% or greater) | A (A represents 0% to less than 30%) | B (B represents 10% to less than 14%) | D (D represents 50% or greater) | prominent IL-4 signaling inhibition
